Measurements as given in article PMC6115456, “PI3Ka-Akt1-mediated Prdm4 induction in adipose tissue increases energy expenditure, inhibits weight gain, and improves insulin resistance in diet-induced obese mice” (Cell Death & Disease, 2018).

Target: T1, PI3Kα (class I catalytic subunit p110α) (Homo sapiens, UniProt P42336)
T1 construct: gene PIK3CA
Test: PI3K ADP-Glo kinase assay (Promega) on purified PI3Kα; also […] inhibition at […] in a recombinant kinase panel
Type: biochemical

T1 sequence (P42336 whole entry): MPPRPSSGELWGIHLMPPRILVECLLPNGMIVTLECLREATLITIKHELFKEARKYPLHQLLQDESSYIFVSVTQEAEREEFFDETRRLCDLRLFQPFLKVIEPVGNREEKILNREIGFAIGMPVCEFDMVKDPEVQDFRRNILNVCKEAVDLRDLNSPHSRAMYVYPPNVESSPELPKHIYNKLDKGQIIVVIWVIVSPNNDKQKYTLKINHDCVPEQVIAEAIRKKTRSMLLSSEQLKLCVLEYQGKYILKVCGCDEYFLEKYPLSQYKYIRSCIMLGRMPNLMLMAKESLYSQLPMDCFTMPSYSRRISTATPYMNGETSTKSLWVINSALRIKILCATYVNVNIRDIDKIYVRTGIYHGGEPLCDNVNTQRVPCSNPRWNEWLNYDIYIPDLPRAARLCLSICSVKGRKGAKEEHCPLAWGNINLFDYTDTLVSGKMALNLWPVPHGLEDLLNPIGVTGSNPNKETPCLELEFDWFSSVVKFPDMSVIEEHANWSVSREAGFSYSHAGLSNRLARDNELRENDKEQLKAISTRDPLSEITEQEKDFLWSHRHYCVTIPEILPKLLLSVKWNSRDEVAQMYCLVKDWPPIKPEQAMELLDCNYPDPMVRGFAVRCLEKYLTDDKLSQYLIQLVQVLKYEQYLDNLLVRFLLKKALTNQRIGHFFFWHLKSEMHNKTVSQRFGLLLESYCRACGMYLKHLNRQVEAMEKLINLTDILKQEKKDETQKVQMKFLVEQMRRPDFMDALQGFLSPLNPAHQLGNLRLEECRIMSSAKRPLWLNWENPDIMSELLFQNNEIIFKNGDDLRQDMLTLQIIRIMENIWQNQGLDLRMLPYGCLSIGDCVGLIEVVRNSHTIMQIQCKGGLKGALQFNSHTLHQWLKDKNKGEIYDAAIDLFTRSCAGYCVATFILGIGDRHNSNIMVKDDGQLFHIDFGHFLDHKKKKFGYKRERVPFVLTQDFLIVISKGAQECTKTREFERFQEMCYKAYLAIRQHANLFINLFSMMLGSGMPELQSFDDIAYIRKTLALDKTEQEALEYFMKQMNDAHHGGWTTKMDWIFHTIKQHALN
T1 sequence (P27986 2-724 partner): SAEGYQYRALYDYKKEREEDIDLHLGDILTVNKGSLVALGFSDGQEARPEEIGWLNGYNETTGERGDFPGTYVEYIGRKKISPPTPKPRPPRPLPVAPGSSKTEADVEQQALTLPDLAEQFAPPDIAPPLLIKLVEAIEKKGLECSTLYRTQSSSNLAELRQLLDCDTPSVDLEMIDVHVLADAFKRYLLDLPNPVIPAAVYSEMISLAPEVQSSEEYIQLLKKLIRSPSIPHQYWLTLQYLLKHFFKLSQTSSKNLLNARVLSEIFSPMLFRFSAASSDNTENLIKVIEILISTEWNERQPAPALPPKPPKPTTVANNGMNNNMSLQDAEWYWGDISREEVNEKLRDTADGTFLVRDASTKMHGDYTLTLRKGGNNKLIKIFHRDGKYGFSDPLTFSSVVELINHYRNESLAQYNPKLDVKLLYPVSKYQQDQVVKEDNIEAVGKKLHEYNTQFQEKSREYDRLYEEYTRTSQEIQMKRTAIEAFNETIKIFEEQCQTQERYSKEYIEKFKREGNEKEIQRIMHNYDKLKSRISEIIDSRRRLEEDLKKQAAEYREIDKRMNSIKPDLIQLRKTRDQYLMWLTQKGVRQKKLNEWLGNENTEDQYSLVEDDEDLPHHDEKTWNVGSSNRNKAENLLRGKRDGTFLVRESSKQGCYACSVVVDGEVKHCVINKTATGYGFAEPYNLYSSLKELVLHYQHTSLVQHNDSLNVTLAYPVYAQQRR

- IC50: 6.4 µM
SMILES: O=C(/C=C/c1ccc(O)c(O)c1)c1ccc(O)cc1O [butein]
